From ChEMBL document CHEMBL1833853, “Synthesis and in-vitro anticancer activity of 3,5-bis(indolyl)-1,2,4-thiadiazoles” (Bioorg Med Chem Lett, 2011)
pIC50: −log10 of the molar value.

Tests used:
Assay type in all cases: functional, cell-based
LNCaP = experiment: Cytotoxicity against human LNCAP cells
DU-145 = experiment: Cytotoxicity against human DU145 cells
MDA-MB-231 = experiment: Cytotoxicity against human MDA-MB-231 cells
PC-3 = experiment: Cytotoxicity against human PC3 cells
MIA PaCa-2 = experiment: Cytotoxicity against human MIAPaCa2 cells
MCF7 = experiment: Cytotoxicity against human MCF7 cells

Row | SMILES | pIC50 (LNCaP) | pIC50 (DU-145) | pIC50 (MDA-MB-231) | pIC50 (PC-3) | pIC50 (MIA PaCa-2) | pIC50 (MCF7)
1 | c1ccc2c(-c3nsc(-c4c[nH]c5ccccc45)n3)c[nH]c2c1 | < 3.00 | 3.60 | 3.15 | < 3.00 | < 3.00 | 3.84
2 | Cn1cc(-c2nsc(-c3cn(C)c4ccccc34)n2)c2ccccc21 | 3.65 | 4.19 | 3.63 | 4.03 | 3.73 | 3.75
3 | Clc1ccc(Cn2cc(-c3nsc(-c4cn(Cc5ccc(Cl)cc5)c5ccccc45)n3)c3ccccc32)cc1 | 3.38 | < 3.00 | < 3.00 | < 3.00 | 4.00 | < 3.00
4 | Brc1ccc2[nH]cc(-c3nsc(-c4c[nH]c5ccc(Br)cc45)n3)c2c1 | 3.80 | 4.25 | 4.00 | 3.79 | 3.91 | 4.50
5 | Cn1cc(-c2nsc(-c3cn(C)c4ccc(Br)cc34)n2)c2cc(Br)ccc21 | < 3.00 | < 3.00 | < 3.00 | < 3.00 | < 3.00 | 4.20
6 | COc1ccc2[nH]cc(-c3nsc(-c4c[nH]c5ccc(OC)cc45)n3)c2c1 | 3.53 | 3.69 | < 3.00 | 3.65 | 4.34 | 3.37
7 | COc1ccc2c(c1)c(-c1nsc(-c3cn(C)c4ccc(OC)cc34)n1)cn2C | 3.95 | 3.86 | 4.02 | 3.57 | 3.75 | 4.10
8 | COc1ccc2c(c1)c(-c1nsc(-c3cn(Cc4ccc(Cl)cc4)c4ccc(OC)cc34)n1)cn2Cc1ccc(Cl)cc1 | 4.84 | 3.43 | 4.17 | 4.67 | 4.67 | 4.49
9 | O=[N+]([O-])c1ccc2[nH]cc(-c3nsc(-c4c[nH]c5ccc([N+](=O)[O-])cc45)n3)c2c1 | 3.75 | 3.49 | 4.01 | 3.17 | 3.73 | 4.08
10 | Brc1ccc2c(-c3nsc(-c4c[nH]c5cc(Br)ccc45)n3)c[nH]c2c1 | 4.10 | 4.52 | 4.42 | 3.88 | 4.08 | 4.41
11 | COc1ccc2c(-c3nsc(-c4c[nH]c5cc(OC)ccc45)n3)c[nH]c2c1 | 4.45 | 4.37 | 4.35 | 4.12 | 4.02 | 4.45
12 | c1ccc2[nH]c(-c3nsc(-c4cc5ccccc5[nH]4)n3)cc2c1 | 3.61 | 3.34 | < 3.00 | 3.49 | 3.99 | 3.79
13 | Cn1c(-c2nsc(-c3cc4ccccc4n3C)n2)cc2ccccc21 | 3.68 | < 3.00 | < 3.00 | 3.36 | 3.58 | 4.18
14 | c1ccc2c(Cc3nsc(Cc4c[nH]c5ccccc45)n3)c[nH]c2c1 | 4.36 | 4.29 | 4.19 | 4.35 | 4.50 | 4.39
